Reference: the Kinase Knowledgebase extract (Sharma et al. 2016)
pIC50: −log10 of the molar value.

Target: EGFR (human), P00533 [WT]
Sequence (P00533 whole entry, looked up): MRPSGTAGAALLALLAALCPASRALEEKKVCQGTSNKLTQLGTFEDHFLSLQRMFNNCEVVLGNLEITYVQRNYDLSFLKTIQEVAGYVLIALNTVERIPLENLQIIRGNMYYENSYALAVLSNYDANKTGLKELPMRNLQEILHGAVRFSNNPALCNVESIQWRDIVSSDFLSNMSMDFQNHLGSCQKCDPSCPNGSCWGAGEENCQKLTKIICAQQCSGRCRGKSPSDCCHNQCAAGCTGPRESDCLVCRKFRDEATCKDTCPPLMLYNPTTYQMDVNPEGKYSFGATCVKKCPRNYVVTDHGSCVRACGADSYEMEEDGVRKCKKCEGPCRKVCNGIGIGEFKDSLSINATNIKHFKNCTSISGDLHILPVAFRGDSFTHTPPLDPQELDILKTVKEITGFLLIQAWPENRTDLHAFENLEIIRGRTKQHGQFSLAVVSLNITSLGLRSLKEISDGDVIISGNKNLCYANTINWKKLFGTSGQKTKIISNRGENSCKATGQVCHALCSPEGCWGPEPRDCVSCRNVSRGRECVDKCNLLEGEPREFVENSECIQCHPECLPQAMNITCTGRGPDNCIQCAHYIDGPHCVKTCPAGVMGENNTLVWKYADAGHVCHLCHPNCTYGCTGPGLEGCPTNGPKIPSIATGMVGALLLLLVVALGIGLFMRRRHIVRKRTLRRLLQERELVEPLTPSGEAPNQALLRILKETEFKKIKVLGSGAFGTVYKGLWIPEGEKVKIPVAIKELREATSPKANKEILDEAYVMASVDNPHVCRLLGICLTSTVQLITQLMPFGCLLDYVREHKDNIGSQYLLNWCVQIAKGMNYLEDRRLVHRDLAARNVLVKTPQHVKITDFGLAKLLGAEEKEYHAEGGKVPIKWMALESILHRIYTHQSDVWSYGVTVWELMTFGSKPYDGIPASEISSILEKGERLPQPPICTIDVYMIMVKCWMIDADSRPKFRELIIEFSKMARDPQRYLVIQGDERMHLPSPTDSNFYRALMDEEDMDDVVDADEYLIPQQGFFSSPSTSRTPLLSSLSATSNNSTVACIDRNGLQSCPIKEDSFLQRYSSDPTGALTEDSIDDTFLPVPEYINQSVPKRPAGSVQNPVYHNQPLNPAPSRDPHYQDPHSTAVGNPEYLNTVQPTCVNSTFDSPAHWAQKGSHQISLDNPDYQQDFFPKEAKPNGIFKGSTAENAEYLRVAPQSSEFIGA

pIC50	SMILES
≥ 8.00	N#CC1(C(=O)Nc2cccc(Nc3cc(Nc4ccc(F)c(Cl)c4)ncn3)c2)CC1
≥ 8.00	COc1ccc(NC(=O)/C=C/CN(C)C)cc1Nc1cc(Nc2ccc(F)c(Cl)c2)ncn1
≥ 8.00	C=CC(=O)N1CCC(Nc2cc(Nc3ccc(F)c(Cl)c3)ncn2)C1 (stereo not drawn)
≥ 8.00	C=CC(=O)N(C)c1cccc(Nc2cc(Nc3ccc(Oc4ccccc4)cc3)ncn2)n1
≥ 8.00	C=CC(=O)Nc1cccc(Nc2cc(Nc3ccccc3)ncn2)n1
≥ 8.00	CN(C)C/C=C/C(=O)Nc1cccc(Nc2cc(Nc3ccc(F)c(Cl)c3)ncn2)c1
≥ 8.00	CN(C)C/C=C/C(=O)Nc1cccc(Nc2cc(Nc3ccccc3)ncn2)n1
≥ 8.00	Cc1cccc(Nc2cc(Nc3cccc(NC(=O)/C=C/CN(C)C)c3)ncn2)c1
≥ 8.00	O=C(CCl)Nc1cccc(Nc2cc(Nc3ccc(F)c(Cl)c3)ncn2)c1
≥ 8.00	C=CS(=O)(=O)Nc1cccc(Nc2cc(Oc3cccc(C(F)(F)F)c3)ncn2)c1
≥ 8.00	CN(C)C/C=C/C(=O)Nc1cccc(Nc2cc(Nc3ccc(F)c(Cl)c3)ncn2)n1
≥ 8.00	C=CC(=O)N1CCCC(Nc2cc(Nc3ccc(F)c(Cl)c3)ncn2)C1 (stereo not drawn)
≥ 8.00	C=CC(=O)Nc1cccc(Nc2cc(Nc3cccc(C)c3)ncn2)c1
≥ 8.00	C=CC(=O)Nc1cccc(Nc2cc(Oc3cccc(C)c3)ncn2)n1
≥ 8.00	C=CC(=O)Nc1cccc(Nc2cc(Nc3cccc(Br)c3)ncn2)c1
≥ 8.00	C=CC(=O)Nc1cccc(Nc2cc(Nc3ccccc3)ncn2)c1
≥ 8.00	CC(Cl)C(=O)Nc1cccc(Nc2cc(Nc3ccc(F)c(Cl)c3)ncn2)c1 (stereo not drawn)
≥ 8.00	C/C=C/C(=O)Nc1cccc(Nc2cc(Nc3cccc(Br)c3)ncn2)c1
≥ 8.00	C=CS(=O)(=O)Nc1cccc(Nc2cc(Nc3cccc(C)c3)ncn2)c1
≥ 8.00	O=C(Nc1cccc(Nc2cc(Nc3ccc(F)c(Cl)c3)ncn2)c1)C1(C(F)(F)F)CC1
≥ 8.00	C#Cc1cccc(Nc2cc(Nc3cccc(NC(=O)C=C)c3)ncn2)c1
≥ 8.00	CC#CC(=O)c1cccc(Nc2cc(Nc3ccc(Oc4ccccc4)cc3)ncn2)c1
≥ 8.00	CN(C)C/C=C/C(=O)N(C)c1cccc(Nc2cc(Nc3ccc(Oc4ccccc4)cc3)ncn2)n1

pIC50	SMILES
≥ 8.00	C=CC(=O)Nc1cccc(Nc2cc(Nc3ccc(Oc4ccccc4)cc3)ncn2)n1
≥ 8.00	C=CC(=O)Nc1cccc(Nc2cc(Nc3ccc(Br)cc3F)ncn2)c1
≥ 8.00	C=CC(=O)Nc1cccc(Nc2cc(Nc3cccc(Oc4ccccc4)c3)ncn2)c1
≥ 8.00	CN(C)C/C=C/C(=O)Nc1cccc(Nc2cc(Nc3ccc(OCc4ccccn4)c(Cl)c3)ncn2)c1
≥ 8.00	CN(C)C/C=C/C(=O)Nc1cccc(Nc2cc(Oc3ccc(Oc4ccccc4)cc3)ncn2)n1
≥ 8.00	CN(C)C/C=C/C(=O)Nc1cccc(Nc2cc(Nc3ccc(OCc4cccc(F)c4)c(Cl)c3)ncn2)c1
≥ 8.00	CN(C)C/C=C/C(=O)Nc1cccc(Nc2cc(Oc3ccc(F)c(Cl)c3)ncn2)c1
≥ 8.00	C=CC(=O)Nc1cccc(Nc2cc(N3CCc4ccccc43)ncn2)c1
≥ 8.00	C=CC(=O)Nc1ccc(Nc2cc(Nc3cccc(Br)c3)ncn2)cc1
≥ 8.00	C=CS(=O)(=O)Nc1cccc(Nc2cc(Nc3ccc(F)c(Cl)c3)ncn2)c1
≥ 8.00	C=CC(=O)Nc1cccc(Nc2cc(N(C)c3ccccc3)ncn2)c1
≥ 8.00	Cc1cccc(Oc2cc(Nc3cccc(NC(=O)C=CCN(C)C)n3)ncn2)c1
≥ 8.00	C=CC(=O)Nc1cccc(Nc2cc(Oc3ccc(OC)cc3)ncn2)n1
≥ 8.00	CC=CC(=O)c1cccc(Nc2cc(Nc3ccc(Oc4ccccc4)cc3)ncn2)c1
≥ 8.00	C=CC(=O)Nc1cccc(Nc2cc(Nc3ccc(F)c(Cl)c3)ncn2)c1
≥ 8.00	C=CS(=O)(=O)Nc1cccc(Nc2cc(Nc3ccc(OCc4cccc(F)c4)c(Cl)c3)ncn2)c1
≥ 8.00	C=CC(=O)Nc1cccc(Nc2cc(Oc3ccc(Oc4ccccc4)cc3)ncn2)n1
≥ 8.00	C=CC(=O)Nc1cccc(Nc2cc(Oc3cccc(OC)c3)ncn2)n1
≥ 8.00	O=C(C=CCN1CCCC1)Nc1cccc(Nc2cc(Nc3ccc(F)c(Cl)c3)ncn2)c1
≥ 8.00	Cc1ccc(NC(=O)/C=C/CN(C)C)cc1Nc1cc(Nc2ccc(F)c(Cl)c2)ncn1
≥ 8.00	C=CC(=O)Nc1cccc(Nc2cc(Oc3cccc(C(F)(F)F)c3)ncn2)c1
≥ 8.00	C=CC(=O)Nc1cccc(Nc2cc(Nc3ccc(Oc4ccccc4)cc3)ncn2)c1
≥ 8.00	C=CC(=O)Nc1cccc(Nc2cc(Nc3ccc(OCc4ccccn4)c(Cl)c3)ncn2)c1

Target: EGFR (Human), P00533 [T790M/L858R]
Sequence (P00533 whole entry T790M/L858R, looked up): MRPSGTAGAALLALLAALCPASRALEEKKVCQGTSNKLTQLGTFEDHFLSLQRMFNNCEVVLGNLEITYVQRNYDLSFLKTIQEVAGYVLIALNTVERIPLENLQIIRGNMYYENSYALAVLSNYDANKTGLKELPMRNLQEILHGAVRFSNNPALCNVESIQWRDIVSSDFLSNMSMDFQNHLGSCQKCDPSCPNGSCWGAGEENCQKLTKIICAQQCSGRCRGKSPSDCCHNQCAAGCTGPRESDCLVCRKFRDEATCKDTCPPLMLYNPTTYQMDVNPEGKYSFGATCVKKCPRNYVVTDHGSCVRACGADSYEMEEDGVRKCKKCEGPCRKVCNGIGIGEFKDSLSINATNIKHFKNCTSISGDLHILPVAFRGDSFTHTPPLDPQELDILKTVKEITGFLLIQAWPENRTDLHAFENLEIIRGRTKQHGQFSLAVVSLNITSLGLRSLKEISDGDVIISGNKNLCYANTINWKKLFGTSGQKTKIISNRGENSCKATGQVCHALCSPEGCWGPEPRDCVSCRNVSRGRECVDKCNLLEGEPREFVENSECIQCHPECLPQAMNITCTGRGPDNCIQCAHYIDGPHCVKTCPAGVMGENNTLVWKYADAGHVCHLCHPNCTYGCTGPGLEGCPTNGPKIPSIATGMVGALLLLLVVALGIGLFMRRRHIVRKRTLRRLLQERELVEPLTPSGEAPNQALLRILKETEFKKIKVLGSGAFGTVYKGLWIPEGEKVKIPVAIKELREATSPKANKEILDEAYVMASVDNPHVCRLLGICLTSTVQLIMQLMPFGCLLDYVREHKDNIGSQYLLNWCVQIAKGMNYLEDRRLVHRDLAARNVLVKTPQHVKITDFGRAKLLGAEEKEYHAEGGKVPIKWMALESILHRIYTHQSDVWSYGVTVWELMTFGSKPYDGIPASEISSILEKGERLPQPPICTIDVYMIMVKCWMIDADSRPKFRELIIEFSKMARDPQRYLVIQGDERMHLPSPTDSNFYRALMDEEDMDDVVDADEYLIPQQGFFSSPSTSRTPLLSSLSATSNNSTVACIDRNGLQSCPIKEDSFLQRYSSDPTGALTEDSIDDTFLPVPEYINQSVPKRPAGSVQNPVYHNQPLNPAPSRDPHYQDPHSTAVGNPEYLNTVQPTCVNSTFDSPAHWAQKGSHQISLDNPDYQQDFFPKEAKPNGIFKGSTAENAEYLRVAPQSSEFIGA

pIC50	SMILES
≥ 8.00	CN(C)C/C=C/C(=O)Nc1cccc(Nc2cc(Nc3ccc(F)c(Cl)c3)ncn2)n1
≥ 8.00	O=C(C=CCN1CCCC1)Nc1cccc(Nc2cc(Nc3ccc(F)c(Cl)c3)ncn2)c1
